Each structure is given as a SMILES string.

For one test, the system named is HIV. Put plainly: MT4 Assay (anti-HIV activity). The test is classed as cell-based. As to conditions: Human immunodeficiency virus 1, 96 h, read-out: HIV MT4 Assay IC50, HTLV-1 transformed cell line MT-4, cell titer glo, 10 point dose response curve. The essentials:
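IC50 values were fitted to 10-point dose-response series (3-4-fold dilutions, range >1000-fold), normalized to no-compound control. CellTiter-Glo read-out was taken after 96 hours in HTLV-1-transformed MT-4 cells. Cytotoxicity was measured in parallel under identical conditions.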
A general note: In ATP-based viability assays light output follows the ATP content of the culture.
Consider `Cc1ccc(-c2c(C(OC(C)(C)C)C(=O)O)n(C)c(=O)c3ccccc23)cc1` (stereo not drawn) [Example 7, 2-(tert-butoxy)-2-[2-methyl-4-(4-methylphenyl)-1-oxo-1,2-dihydroisoquinolin-3-yl]acetic acid], for which the IC50 is 700 nM.
Same read-out and setting: to `Cn1c(C(OC(C)(C)C)C(=O)O)c(-c2cccc(C(F)(F)F)c2)c2ccccc2c1=O` (stereo not drawn) [Example 13, 2-(tert-butoxy)-2-{2-methyl-1-oxo-4-[3-(trifluoromethyl)phenyl]-1,2-dihydroisoquinolin-3-yl}acetic acid] belongs 23800 nM.
The same measure, in the same setting: to `Cc1ccc(-c2c(C(OC(C)(C)C)C(=O)O)n(C)c(=O)c3cc(-c4cccn4C)ccc23)cc1C` (stereo not drawn) [Example 191, [(1,1′-dimethylethyl)oxy][4-(3,4-dimethylphenyl)-2-methyl-7-(1-methyl-1H-pyrrol-2-yl)-1-oxo-1,2-dihydro-3-isoquinolinyl]acetic acid] belongs 350 nM; to `Cc1c(-c2c([C@H](OC(C)(C)C)C(=O)O)n(C)c(=O)c3cc(C(=O)N4CCOCC4)ccc23)cc(F)c2c1CCCO2` (atropisomer, axis not shown; (M)) [Example 169, (S)(M)-2-(tert-butoxy)-2-(4-(8-fluoro-5-methylchroman-6-yl)-2-methyl-7-(morpholine-4-carbonyl)-1-oxo-1,2-dihydroisoquinolin-3-yl)acetic acid], 22500 nM; to `Cc1c(-c2c([C@H](OC(C)(C)C)C(=O)O)n(C)c(=O)c3cc(CC(C)C)ccc23)cc(F)c2c1CCCO2` (atropisomer, axis not shown; (M)) [Example 174, (2S)(M)-[(1,1-dimethylethyl)oxy][4-(8-fluoro-5-methyl-3,4-dihydro-2H-chromen-6-yl)-2-methyl-7-(2-methylpropyl)-1-oxo-1,2-dihydro-3-isoquinolinyl]ethanoic acid], 50 nM.
In the case of `Cn1c(C(OC(C)(C)C)C(=O)O)c(-c2ccc3c(c2Cl)CCCO3)c2ccccc2c1=O` (stereo not drawn) [Example 21, 2-(tert-butoxy)-2-[4-(5-chloro-3,4-dihydro-2H-1-benzopyran-6-yl)-2-methyl-1-oxo-1,2-dihydroisoquinolin-3-yl]acetic acid], the IC50 amounted to 3500 nM.
On the same count and under the same terms, then `Cn1c(C(OC(C)(C)C)C(=O)O)c(-c2ccccc2)c2ccccc2c1=O` (stereo not drawn) [Example 156, [(1,1-dimethylethyl)oxy](2-methyl-1-oxo-4-phenyl-1,2-dihydro-3-isoquinolinyl)acetic acid], with 800 nM; and `Cn1c(C(OC(C)(C)C)C(=O)O)c(-c2ccc3c(c2)OCO3)c2ccccc2c1=O` (stereo not drawn) [Example 51, 2-[4-(2H-1,3-benzodioxol-5-yl)-2-methyl-1-oxo-1,2-dihydroisoquinolin-3-yl]-2-(tert-butoxy)acetic acid], with 5300 nM; and `CCc1c(-c2c(C(OC(C)(C)C)C(=O)O)n(C)c(=O)c3ccccc23)ccc2c1CCCO2` (stereo not drawn) [Example 121, 2-(tert-butoxy)-2-[4-(5-ethyl-3,4-dihydro-2H-1-benzopyran-6-yl)-2-methyl-1-oxo-1,2-dihydroisoquinolin-3-yl]acetic acid], with 940 nM.
With `Cc1nc(COc2ccc3c(-c4cc(F)c5c(c4C)CCCO5)c([C@H](OC(C)(C)C)C(=O)O)n(C)c(=O)c3c2)c(C)o1` [Example 105, (2S)-2-(tert-butoxy)-2-{7-[(dimethyl-1,3-oxazol-4-yl)methoxy]-4-(8-fluoro-5-methyl-3,4-dihydro-2H-1-benzopyran-6-yl)-2-methyl-1-oxo-1,2-dihydroisoquinolin-3-yl}acetic acid], the IC50 came to 100 nM.
On to `Cc1ccc2c(-c3ccc4c(c3)CCCO4)c(C(OC(C)(C)C)C(=O)O)n(C)c(=O)c2c1` (stereo not drawn) [Example 58, 2-(tert-butoxy)-2-[4-(3,4-dihydro-2H-1-benzopyran-6-yl)-2,7-dimethyl-1-oxo-1,2-dihydroisoquinolin-3-yl]acetic acid], for which the IC50 came out at 370 nM.
The same measure, in the same setting: then `Cc1ccc(-c2c([C@H](OC(C)(C)C)C(=O)O)n(C)c(=O)c3ccccc23)cc1C` [Example 3, (S)-2-(tert-butoxy)-2-(4-(3,4-dimethylphenyl)-2-methyl-1-oxo-1,2-dihydroisoquinolin-3-yl)acetic acid], with 440 nM.
In the case of `Cc1ccc(-c2c(C(OC(C)(C)C)C(=O)O)n(C)c(=O)c3cc(CNCc4ccccn4)ccc23)cc1C` (stereo not drawn) [Example 183, 2-(tert-butoxy)-2-(4-(3,4-dimethylphenyl)-2-methyl-1-oxo-7-(((pyridin-2-ylmethyl)amino)methyl)-1,2-dihydroisoquinolin-3-yl)acetic acid], the IC50 was 3610 nM.
For `Cc1ccc2c(-c3cc(F)c4c(c3C)CCCO4)c([C@H](OC(C)(C)C)C(=O)O)n(C)c(=O)c2c1` [Example 131, (2S)-2-(tert-butoxy)-2-[4-(8-fluoro-5-methyl-3,4-dihydro-2H-1-benzopyran-6-yl)-2,7-dimethyl-1-oxo-1,2-dihydroisoquinolin-3-yl]acetic acid], the IC50 came out at 20 nM.
With `COc1ccc2c(-c3ccc4c(c3C)CCCO4)c([C@H](OC(C)(C)C)C(=O)O)n(C)c(=O)c2c1` [Example 94, (2S)-2-(tert-butoxy)-2-[7-methoxy-2-methyl-4-(5-methyl-3,4-dihydro-2H-1-benzopyran-6-yl)-1-oxo-1,2-dihydroisoquinolin-3-yl]acetic acid], the IC50 is 20 nM.
The same measure, in the same setting: then `Cc1c(-c2c([C@H](OC(C)(C)C)C(=O)O)n(C)c(=O)c3cc(OCc4ccc(F)cc4)ccc23)ccc2c1CCCO2` [Example 147, (2S)-2-(tert-butoxy)-2-{7-[(4-fluorophenyl)methoxy]-2-methyl-4-(5-methyl-3,4-dihydro-2H-1-benzopyran-6-yl)-1-oxo-1,2-dihydroisoquinolin-3-yl}acetic acid], with 20 nM; and `Cc1c(-c2c(C(OC(C)(C)C)C(=O)O)n(C)c(=O)c3cc(OCc4cncnc4)ccc23)ccc2c1CCCO2` (stereo not drawn) [Example 137, 2-(tert-butoxy)-2-[2-methyl-4-(5-methyl-3,4-dihydro-2H-1-benzopyran-6-yl)-1-oxo-7-(pyrimidin-5-ylmethoxy)-1,2-dihydroisoquinolin-3-yl]acetic acid], with 1030 nM; and `CCn1c(C(OC(C)(C)C)C(=O)O)c(-c2ccc(C)c(C)c2)c2ccccc2c1=O` (stereo not drawn) [Example 28, 2-(tert-butoxy)-2-[4-(3,4-dimethylphenyl)-2-ethyl-1-oxo-1,2-dihydroisoquinolin-3-yl]acetic acid], with 6130 nM.
`COc1ccc(-c2ccc3c(-c4cc(F)c5c(c4C)CCCO5)c([C@H](OC(C)(C)C)C(=O)O)n(C)c(=O)c3c2)cn1` (atropisomer, axis not shown; (M)) [Example 198, (2S)(M)-[(1,1-dimethylethyl)oxy]{4-(8-fluoro-5-methyl-3,4-dihydro-2H-chromen-6-yl)-2-methyl-7-[6-(methyloxy)-3-pyridinyl]-1-oxo-1,2-dihydro-3-isoquinolinyl}ethanoic acid]: the IC50 was found to be 40 nM.
Still for that read-out and setting: to `Cc1c(-c2c([C@H](OC(C)(C)C)C(=O)O)n(C)c(=O)c3cc(Br)ccc23)cc(F)c2c1CCCO2` (atropisomer, axis not shown; (M)) [Example 164, (2S)(M)-[7-bromo-4-(8-fluoro-5-methyl-3,4-dihydro-2H-chromen-6-yl)-2-methyl-1-oxo-1,2-dihydro-3-isoquinolinyl][(1,1-dimethylethyl)oxy]ethanoic acid] belongs 460 nM; to `Cc1c(-c2c([C@H](OC3(C)CCC3)C(=O)O)n(C)c(=O)c3ccccc23)cc(F)c2c1CCCO2` (atropisomer, axis not shown; (M)) [Example 163, (2S)(M)-2-[4-(8-fluoro-5-methyl-3,4-dihydro-2H-1-benzopyran-6-yl)-2-methyl-1-oxo-1,2-dihydroisoquinolin-3-yl]-2-(1-methylcyclobutoxy)acetic acid], 110 nM; to `CCn1c(C(OC(C)(C)C)C(=O)O)c(-c2ccc3c(c2C)CCCO3)c2ccccc2c1=O` (stereo not drawn) [Example 77, 2-(tert-butoxy)-2-[2-ethyl-4-(5-methyl-3,4-dihydro-2H-1-benzopyran-6-yl)-1-oxo-1,2-dihydroisoquinolin-3-yl]acetic acid], 490 nM.
In the case of `Cc1c(-c2c(C(OC(C)(C)C)C(=O)O)n(C)c(=O)c3cc(Cl)ccc23)ccc2c1CCCO2` (stereo not drawn) [Example 79, 2-(tert-butoxy)-2-[7-chloro-2-methyl-4-(5-methyl-3,4-dihydro-2H-1-benzopyran-6-yl)-1-oxo-1,2-dihydroisoquinolin-3-yl]acetic acid], the IC50 turned out to be 200 nM.
The same measure, in the same setting: to `Cc1c(-c2c(C(OC(C)(C)C)C(=O)O)n(C)c(=O)c3cc(OCc4c(F)cccc4F)ccc23)ccc2c1CCCO2` (stereo not drawn) [Example 98, 2-(tert-butoxy)-2-{7-[(2,6-difluorophenyl)methoxy]-2-methyl-4-(5-methyl-3,4-dihydro-2H-1-benzopyran-6-yl)-1-oxo-1,2-dihydroisoquinolin-3-yl}acetic acid] belongs 90 nM.

The same test, now with this note: read-out: HIV MT4 Assay IC50; HTLV-1 transformed cell line MT-4; 96 hours; cell titer glo; 10 point dose response curve.
Regarding `Cc1c(-c2c([C@@H](OC(C)(C)C)C(=O)O)n(C)c(=O)c3ccccc23)cc(F)c2c1CCCO2` [Example 161, (2R)-2-(tert-butoxy)-2-[4-(8-fluoro-5-methyl-3,4-dihydro-2H-1-benzopyran-6-yl)-2-methyl-1-oxo-1,2-dihydroisoquinolin-3-yl]acetic acid], the IC50 turned out to be 7210 nM.
`Cc1c(-c2c([C@H](OC(C)(C)C)C(=O)O)n(C)c(=O)c3ccccc23)cc(F)c2c1CCCO2` (atropisomer, axis not shown; (M)) [Example 159, (2S)(M)-2-(tert-butoxy)-2-(4-(8-fluoro-5-methylchroman-6-yl)-2-methyl-1-oxo-1,2-dihydroisoquinolin-3-yl)acetic acid]: the IC50 amounted to 30 nM.
Turning to `Cc1c(-c2c([C@@H](OC(C)(C)C)C(=O)O)n(C)c(=O)c3ccccc23)cc(F)c2c1CCCO2` [Example 160, (2R)-2-(tert-butoxy)-2-[4-(8-fluoro-5-methyl-3,4-dihydro-2H-1-benzopyran-6-yl)-2-methyl-1-oxo-1,2-dihydroisoquinolin-3-yl]acetic acid], the IC50 is 41600 nM.

What is called IC50 is the concentration that inhibits the measured activity by half.

(Values after patent US9029391B2 (priority 2011, dated 2015).)
